Key:
[1] = molecular target: T1, Albumin (Homo sapiens, UniProt P02768); assay: Binding affinity to human serum albumin with excitation at 295 nm after 30 mins by fluorescence spectrophotometric analysis
[2] = molecular target: T1, Albumin; assay: Binding affinity to human serum albumin with excitation at 285 nm after 30 mins by fluorescence spectrophotometric analysis

T1 sequence (P02768 whole entry): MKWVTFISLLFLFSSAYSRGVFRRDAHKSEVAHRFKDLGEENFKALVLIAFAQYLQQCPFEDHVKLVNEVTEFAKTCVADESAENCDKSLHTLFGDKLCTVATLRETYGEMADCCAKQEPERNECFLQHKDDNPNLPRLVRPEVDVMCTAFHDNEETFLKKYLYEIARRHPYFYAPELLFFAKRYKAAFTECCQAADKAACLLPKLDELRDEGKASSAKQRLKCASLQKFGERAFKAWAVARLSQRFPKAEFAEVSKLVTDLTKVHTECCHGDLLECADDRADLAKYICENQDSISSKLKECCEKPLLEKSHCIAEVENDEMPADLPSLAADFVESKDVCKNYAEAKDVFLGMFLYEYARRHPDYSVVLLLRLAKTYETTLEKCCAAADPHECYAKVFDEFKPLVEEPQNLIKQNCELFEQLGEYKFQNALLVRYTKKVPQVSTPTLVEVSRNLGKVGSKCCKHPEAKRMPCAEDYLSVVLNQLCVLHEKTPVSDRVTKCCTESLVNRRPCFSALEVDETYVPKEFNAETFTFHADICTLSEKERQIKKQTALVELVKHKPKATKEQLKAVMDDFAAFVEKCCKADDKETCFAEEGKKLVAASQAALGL

SMILES: C=C(C)[C@@H]1CC[C@]2(C(=O)[O-])CC[C@]3(C)[C@H](CC[C@@H]4[C@@]5(C)CC[C@H](O)C(C)(C)[C@@H]5CC[C@]43C)[C@@H]12.CCCCCCCCCCCC[N+](C)(C)Cc1ccccc1
- Kd [1]: 1.9 µM
- Kd [2]: 1.6 µM

SMILES: C=C(C)[C@@H]1CC[C@]2(C(=O)N[C@H](C)C(=O)[O-])CC[C@]3(C)[C@H](CC[C@@H]4[C@@]5(C)CC[C@H](O)C(C)(C)[C@@H]5CC[C@]43C)[C@@H]12.CCCCCCCCCCCC[N+](C)(C)Cc1ccccc1
- Kd [1]: 19 µM
- Kd [2]: 19 µM

SMILES: C=C(C)[C@@H]1CC[C@]2(C(=O)N[C@H](C)C(=O)O)CC[C@]3(C)[C@H](CC[C@@H]4[C@@]5(C)CC[C@H](O)C(C)(C)[C@@H]5CC[C@]43C)[C@@H]12
- Kd [1]: 37 µM
- Kd [2]: 47 µM
